According to ChEMBL document CHEMBL1933021, “Novel and selective spiroindoline-based inhibitors of Sky kinase” (Bioorg Med Chem Lett, 2012):

Legend:
[1] = molecular target: T1, Protein kinase C zeta type (Homo sapiens, UniProt Q05513); test: Inhibition of PKCzeta
T1 sequence (Q05513 whole entry): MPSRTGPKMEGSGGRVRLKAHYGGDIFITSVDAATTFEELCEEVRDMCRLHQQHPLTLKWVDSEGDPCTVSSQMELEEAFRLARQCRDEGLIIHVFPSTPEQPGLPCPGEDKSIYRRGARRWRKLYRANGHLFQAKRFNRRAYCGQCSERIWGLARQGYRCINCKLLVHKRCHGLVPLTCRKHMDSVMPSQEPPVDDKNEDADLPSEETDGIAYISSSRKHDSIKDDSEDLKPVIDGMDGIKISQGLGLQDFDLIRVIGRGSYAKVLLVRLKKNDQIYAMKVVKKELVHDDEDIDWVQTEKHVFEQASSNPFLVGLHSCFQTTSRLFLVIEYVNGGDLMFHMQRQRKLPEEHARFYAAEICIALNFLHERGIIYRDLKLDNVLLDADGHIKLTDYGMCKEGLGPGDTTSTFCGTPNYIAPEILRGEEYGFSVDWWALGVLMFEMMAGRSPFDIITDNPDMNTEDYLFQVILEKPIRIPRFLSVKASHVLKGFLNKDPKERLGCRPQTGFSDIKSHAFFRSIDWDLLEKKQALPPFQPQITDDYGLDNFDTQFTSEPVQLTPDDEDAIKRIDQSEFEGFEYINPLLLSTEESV

[2] = Inhibition of p38
[3] = molecular target: Serine/threonine-protein kinase pim-2 (Homo sapiens, UniProt Q9P1W9); test: Inhibition of Pim-2
Sequence of Serine/threonine-protein kinase pim-2 (Q9P1W9 whole entry): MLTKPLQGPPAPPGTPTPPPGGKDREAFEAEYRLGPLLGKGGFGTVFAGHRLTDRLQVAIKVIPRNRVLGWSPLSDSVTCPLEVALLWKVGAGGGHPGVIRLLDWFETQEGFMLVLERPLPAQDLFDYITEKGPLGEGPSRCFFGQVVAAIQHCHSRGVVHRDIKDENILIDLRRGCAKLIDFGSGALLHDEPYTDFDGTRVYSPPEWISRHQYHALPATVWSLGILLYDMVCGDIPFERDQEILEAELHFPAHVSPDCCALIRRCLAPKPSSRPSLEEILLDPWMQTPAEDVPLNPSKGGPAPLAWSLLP

[4] = molecular target: T2, Serine/threonine-protein kinase Chk1 (Homo sapiens, UniProt O14757); test: Inhibition of Chk1
T2 sequence (O14757 whole entry): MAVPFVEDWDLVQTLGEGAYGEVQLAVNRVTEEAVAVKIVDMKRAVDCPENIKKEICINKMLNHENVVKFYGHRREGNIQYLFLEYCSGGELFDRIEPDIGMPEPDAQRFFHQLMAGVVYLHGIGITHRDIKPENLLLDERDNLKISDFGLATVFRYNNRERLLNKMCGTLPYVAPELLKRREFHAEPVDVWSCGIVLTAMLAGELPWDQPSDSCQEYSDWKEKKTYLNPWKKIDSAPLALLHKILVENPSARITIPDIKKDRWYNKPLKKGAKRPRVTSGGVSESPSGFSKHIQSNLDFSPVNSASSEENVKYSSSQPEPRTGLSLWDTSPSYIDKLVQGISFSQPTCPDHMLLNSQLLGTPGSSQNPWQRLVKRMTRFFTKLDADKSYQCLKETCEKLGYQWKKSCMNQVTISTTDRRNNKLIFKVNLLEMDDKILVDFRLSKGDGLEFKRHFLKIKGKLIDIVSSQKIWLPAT

[5] = molecular target: Fibroblast growth factor receptor 1 (Homo sapiens, UniProt P11362); test: Inhibition of FGFR1
Sequence of Fibroblast growth factor receptor 1 (P11362 whole entry, canonical isoform): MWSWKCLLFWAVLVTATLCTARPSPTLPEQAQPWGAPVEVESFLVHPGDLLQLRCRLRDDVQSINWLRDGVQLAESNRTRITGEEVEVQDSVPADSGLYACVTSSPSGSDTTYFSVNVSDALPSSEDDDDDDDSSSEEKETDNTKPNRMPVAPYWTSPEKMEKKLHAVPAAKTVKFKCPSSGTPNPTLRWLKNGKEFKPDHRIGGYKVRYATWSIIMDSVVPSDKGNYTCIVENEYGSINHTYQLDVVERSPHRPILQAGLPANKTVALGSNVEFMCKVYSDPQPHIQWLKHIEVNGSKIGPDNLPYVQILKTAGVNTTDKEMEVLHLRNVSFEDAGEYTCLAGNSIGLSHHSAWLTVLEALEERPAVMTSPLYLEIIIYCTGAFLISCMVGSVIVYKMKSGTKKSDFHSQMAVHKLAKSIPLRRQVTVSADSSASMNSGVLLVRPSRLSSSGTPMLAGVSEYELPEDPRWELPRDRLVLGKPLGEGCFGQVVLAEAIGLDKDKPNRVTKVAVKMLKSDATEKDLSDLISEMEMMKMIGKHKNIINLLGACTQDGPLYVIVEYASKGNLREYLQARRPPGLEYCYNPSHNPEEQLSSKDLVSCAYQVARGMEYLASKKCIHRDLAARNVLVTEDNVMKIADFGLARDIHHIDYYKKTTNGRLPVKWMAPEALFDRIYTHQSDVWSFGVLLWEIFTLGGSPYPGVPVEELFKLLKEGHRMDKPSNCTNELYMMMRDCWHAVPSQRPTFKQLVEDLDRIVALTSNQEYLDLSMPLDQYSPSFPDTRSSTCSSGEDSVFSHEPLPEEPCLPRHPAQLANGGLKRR

[6] = molecular target: Casein kinase I isoform delta (Homo sapiens, UniProt P48730); test: Inhibition of CK1delta
Sequence of Casein kinase I isoform delta (P48730 whole entry, canonical isoform): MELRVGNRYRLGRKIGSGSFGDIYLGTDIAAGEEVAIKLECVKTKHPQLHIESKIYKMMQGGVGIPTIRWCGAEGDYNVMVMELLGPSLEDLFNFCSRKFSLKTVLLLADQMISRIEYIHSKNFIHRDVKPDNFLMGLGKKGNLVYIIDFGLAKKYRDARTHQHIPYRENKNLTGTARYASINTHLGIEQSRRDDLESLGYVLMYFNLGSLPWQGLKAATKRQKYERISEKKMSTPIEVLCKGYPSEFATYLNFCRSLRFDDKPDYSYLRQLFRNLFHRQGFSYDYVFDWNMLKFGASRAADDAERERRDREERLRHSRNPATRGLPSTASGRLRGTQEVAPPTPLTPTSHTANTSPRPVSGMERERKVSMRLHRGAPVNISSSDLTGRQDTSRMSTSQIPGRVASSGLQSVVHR

[7] = molecular target: T3, Tyrosine-protein kinase Mer (Homo sapiens, UniProt Q12866); test: Inhibition of Mer
T3 sequence (Q12866 whole entry): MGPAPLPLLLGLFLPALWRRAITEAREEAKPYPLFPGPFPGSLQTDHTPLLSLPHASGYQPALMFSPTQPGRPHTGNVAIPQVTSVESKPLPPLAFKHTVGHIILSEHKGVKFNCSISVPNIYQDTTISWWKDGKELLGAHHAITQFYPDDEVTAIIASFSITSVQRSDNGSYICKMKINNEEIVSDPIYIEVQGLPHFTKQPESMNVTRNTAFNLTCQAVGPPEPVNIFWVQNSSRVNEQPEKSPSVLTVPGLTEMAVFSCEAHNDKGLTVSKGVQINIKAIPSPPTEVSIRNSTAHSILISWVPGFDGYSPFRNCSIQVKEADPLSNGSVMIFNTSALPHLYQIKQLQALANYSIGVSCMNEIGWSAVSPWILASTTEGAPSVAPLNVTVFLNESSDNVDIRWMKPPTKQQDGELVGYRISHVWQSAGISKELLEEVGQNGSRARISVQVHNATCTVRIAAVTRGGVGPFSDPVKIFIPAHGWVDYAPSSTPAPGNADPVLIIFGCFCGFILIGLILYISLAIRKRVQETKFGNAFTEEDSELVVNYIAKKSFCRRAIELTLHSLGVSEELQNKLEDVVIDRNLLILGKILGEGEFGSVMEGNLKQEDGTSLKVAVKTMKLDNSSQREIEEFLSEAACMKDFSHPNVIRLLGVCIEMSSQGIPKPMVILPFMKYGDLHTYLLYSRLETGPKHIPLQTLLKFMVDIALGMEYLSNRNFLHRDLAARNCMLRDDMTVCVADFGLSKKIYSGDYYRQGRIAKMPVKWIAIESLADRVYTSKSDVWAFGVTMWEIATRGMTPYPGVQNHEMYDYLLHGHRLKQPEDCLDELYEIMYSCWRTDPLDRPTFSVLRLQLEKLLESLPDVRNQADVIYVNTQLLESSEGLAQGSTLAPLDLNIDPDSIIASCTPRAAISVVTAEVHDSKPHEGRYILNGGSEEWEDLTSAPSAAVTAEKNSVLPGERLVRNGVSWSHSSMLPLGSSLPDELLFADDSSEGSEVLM

[8] = molecular target: T4, Inhibitor of nuclear factor kappa-B kinase subunit epsilon (Homo sapiens, UniProt Q14164); test: Inhibition of IKKi
T4 sequence (Q14164 whole entry): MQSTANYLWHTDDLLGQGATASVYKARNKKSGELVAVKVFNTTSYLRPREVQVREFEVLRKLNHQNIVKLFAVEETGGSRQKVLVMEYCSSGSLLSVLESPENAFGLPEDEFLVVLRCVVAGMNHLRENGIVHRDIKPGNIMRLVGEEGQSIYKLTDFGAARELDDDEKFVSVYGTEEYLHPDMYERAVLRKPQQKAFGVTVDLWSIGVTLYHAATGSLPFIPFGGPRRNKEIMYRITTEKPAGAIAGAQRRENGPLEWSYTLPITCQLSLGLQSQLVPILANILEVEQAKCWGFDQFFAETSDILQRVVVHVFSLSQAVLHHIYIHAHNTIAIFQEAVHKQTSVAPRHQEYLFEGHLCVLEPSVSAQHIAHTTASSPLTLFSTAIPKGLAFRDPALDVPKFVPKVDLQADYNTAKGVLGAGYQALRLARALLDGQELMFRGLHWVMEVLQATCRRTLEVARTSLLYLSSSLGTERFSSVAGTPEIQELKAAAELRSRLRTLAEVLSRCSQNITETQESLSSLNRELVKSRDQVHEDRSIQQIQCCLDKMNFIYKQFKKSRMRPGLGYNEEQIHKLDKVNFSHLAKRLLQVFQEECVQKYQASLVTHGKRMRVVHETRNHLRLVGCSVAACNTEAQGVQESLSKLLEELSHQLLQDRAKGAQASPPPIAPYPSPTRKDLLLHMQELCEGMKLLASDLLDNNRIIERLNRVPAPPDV

[9] = molecular target: MAP kinase-activated protein kinase 2 (Homo sapiens, UniProt P49137); test: Inhibition of MAPKAP-2
Sequence of MAP kinase-activated protein kinase 2 (P49137 whole entry): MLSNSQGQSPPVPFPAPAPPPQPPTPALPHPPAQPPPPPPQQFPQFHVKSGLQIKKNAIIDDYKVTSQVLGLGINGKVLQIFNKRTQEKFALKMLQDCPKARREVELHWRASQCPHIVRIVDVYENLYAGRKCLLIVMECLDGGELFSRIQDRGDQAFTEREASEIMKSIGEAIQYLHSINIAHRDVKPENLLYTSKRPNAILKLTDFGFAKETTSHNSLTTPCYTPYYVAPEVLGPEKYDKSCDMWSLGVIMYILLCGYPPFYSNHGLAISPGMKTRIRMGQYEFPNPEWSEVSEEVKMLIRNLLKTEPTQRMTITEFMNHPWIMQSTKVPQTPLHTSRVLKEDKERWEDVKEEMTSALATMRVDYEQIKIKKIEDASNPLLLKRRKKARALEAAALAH

[10] = molecular target: Tyrosine-protein kinase Lck (Homo sapiens, UniProt P06239); test: Inhibition of Lck
Sequence of Tyrosine-protein kinase Lck (P06239 whole entry): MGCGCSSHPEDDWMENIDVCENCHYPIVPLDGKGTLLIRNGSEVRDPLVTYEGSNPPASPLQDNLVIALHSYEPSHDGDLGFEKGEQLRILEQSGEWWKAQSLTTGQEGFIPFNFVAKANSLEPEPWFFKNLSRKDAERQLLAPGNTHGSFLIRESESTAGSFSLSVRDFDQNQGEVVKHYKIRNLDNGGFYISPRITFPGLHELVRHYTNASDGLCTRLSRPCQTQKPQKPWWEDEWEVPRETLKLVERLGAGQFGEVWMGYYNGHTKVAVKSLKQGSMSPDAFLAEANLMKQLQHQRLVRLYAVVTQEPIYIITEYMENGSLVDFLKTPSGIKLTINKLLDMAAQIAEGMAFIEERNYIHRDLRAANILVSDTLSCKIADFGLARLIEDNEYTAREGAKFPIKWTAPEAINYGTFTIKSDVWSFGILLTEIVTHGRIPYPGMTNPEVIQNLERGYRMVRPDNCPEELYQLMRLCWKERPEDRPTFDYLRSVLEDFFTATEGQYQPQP

Row | IC50 [1] | IC50 [2] | IC50 [3] | IC50 [4] | IC50 [5] | IC50 [6] | IC50 [7] | IC50 [8] | IC50 [9] | IC50 [10] | Structure (SMILES)
1 | > 30 µM | > 30 µM | > 30 µM | > 30 µM | 22.7 µM | 1.73 µM | 0.97 µM | > 30 µM | > 30 µM |  | C[C@@H]1CCC(N2CC[C@]3(CN(C(=O)c4cc5ccc(F)cc5[nH]4)c4ccccc43)C2)CN1 (stereo partly drawn)
2 | > 30 µM | > 30 µM | > 30 µM | > 30 µM | > 30 µM |  | 6.93 µM | > 30 µM | > 30 µM | > 30 µM | O=C(c1cc2cc(F)ccc2[nH]1)N1C[C@]2(CCN(C3CCCNC3)C2)c2ccccc21 (stereo partly drawn)
3 | > 30 µM | > 30 µM | > 30 µM | > 30 µM | > 30 µM | 6.61 µM | 2.34 µM | > 30 µM | > 30 µM | > 30 µM | C[C@@H]1CCC(N2CC[C@]3(CN(C(=O)c4cc5ccccc5[nH]4)c4ccccc43)C2)CN1 (stereo partly drawn)
4 | > 30 µM | > 30 µM | > 30 µM | > 30 µM | > 30 µM | 11 µM | 2.44 µM | > 30 µM | > 30 µM | > 30 µM | O=C(c1cc2ccc(F)cc2[nH]1)N1C[C@]2(CCN(C3CCNC3)C2)c2ccccc21 (stereo partly drawn)
